Reference: patent US8394848B2, “Compounds that modulate intracellular calcium” (Calcimedica, Inc., priority 2008, dated 2013)

test system: JR251 or RBL cells; assay: Store-operated calcium entry, either JR251 or RBL cells, or both; format: cell-based
Method: The day prior to performing the assay, RBL-2H3 cells are plated in 50 μL of complete medium in a 384 well plate. Cells are grown at 37° C./6% CO2 overnight and grow to 50-60% confluence by the next day. On the assay day, 1.5 μM Fluo-4-AM dye (Invitrogen) in complete medium is added and incubated for 1 hour at RT. Cells are washed twice in Ca^2+-free HBSS buffer and 35 μL Ca^2+-free HBSS buffer is added to each well. 10 μL of a test compound prepared in a Ca^2+-free HBSS solution at 4.5× of the desired concentration is added to a well and incubated for 5 minutes at RT. 10 μL of thapsigargin prepared in a Ca^2+-free HBSS solution at 5.5× of the desired concentration (5.5 uM) is added to each well and incubated for an additional 25 minutes. The initial baseline fluorescence signal is measured with a FLIPR^384 (Molecular Devices) plate reader. 5 μL of 12× calcium in HBSS (12 mM) is added and changes in cellular fluorescence are measured with the FLIPR^384 plate reader. In each well, the change in the fluorescent signal as a function of time due to calcium entry into the cell is determined by calculating the difference between the fluorescent signal measured 7 seconds after calcium addition and the initial baseline fluorescence signal at time zero (t=0). This parameter is designated Upslope. The IC50 value is calculated as the concentration at which 50% of the Upslope is inhibited.

| IC50 [µM] | Structure (SMILES) |
| --- | --- |
| < 10 | O=C(Nc1scc(-c2ccc(Br)cc2)c1C(=O)O)c1ccc2nnsc2c1 [2-(benzo[d][1,2,3]thiadiazole-6-carboxamido)-4-(4-bromophenyl)thiophene-3-carboxylic acid] |
| < 10 | O=C(Nc1scc(-c2ccc(Br)cc2)c1C(=O)O)c1nc2ccccc2o1 [2-(benzo[d]oxazole-2-carboxamido)-4-(4-bromophenyl)thiophene-3-carboxylic acid] |
| < 10 | O=C(CCc1ccccc1Cl)Nc1scc(-c2ccc(Br)cc2)c1C(=O)O [4-(4-bromophenyl)-2-(3-(2-chlorophenyl)propanamido)thiophene-3-carboxylic acid] |
| < 10 | O=C(Nc1scc(-c2ccc(Cl)cc2)c1C(=O)O)c1nc2c(F)cccc2o1 [4-(4-chlorophenyl)-2-(4-fluorobenzo[d]oxazole-2-carboxamido)thiophene-3-carboxylic acid] |
| < 10 | O=C(Nc1scc(-c2ccc(Br)cc2)c1C(=O)O)c1ccc(C(F)(F)F)nc1 [4-(4-bromophenyl)-2-(6-(trifluoromethyl)nicotinamido)thiophene-3-carboxylic acid] |
| < 10 | O=C(Nc1scc(-c2cc3cccc(O)c3o2)c1C(=O)O)c1nc2ccccc2o1 [2-(benzo[d]oxazole-2-carboxamido)-4-(7-hydroxybenzofuran-2-yl)thiophene-3-carboxylic acid] |
| < 10 | O=C(CCc1ccc(F)cc1)Nc1scc(-c2ccc(Br)cc2)c1C(=O)O [4-(4-bromophenyl)-2-(3-(4-fluorophenyl)propanamido)thiophene-3-carboxylic acid] |
| < 10 | N#CC(Cc1ccccc1Cl)C(=O)Nc1scc(-c2ccc(Cl)cc2)c1C(=O)O (stereo not shown) [4-(4-chlorophenyl)-2-(3-(2-chlorophenyl)-2-cyanopropanamido)thiophene-3-carboxylic acid] |
| < 10 | O=C(Nc1scc(-c2ccc3c(c2)CCC3)c1C(=O)O)c1cc2ccccc2o1 [2-(benzofuran-2-carboxamido)-4-(2,3-dihydro-1H-inden-5-yl)thiophene-3-carboxylic acid] |
| < 10 | O=C(O)c1c(-c2ccc(Cl)cc2)csc1NC(=O)C1Cc2ccccc21 (stereo not shown) [4-(4-chlorophenyl)-2-(1,2-dihydrocyclobutabenzene-1-carboxamido)thiophene-3-carboxylic acid] |
| < 10 | O=C(CCc1cccc(F)c1)Nc1scc(-c2ccc(Cl)cc2)c1C(=O)O [4-(4-chlorophenyl)-2-(3-(3-fluorophenyl)propanamido)thiophene-3-carboxylic acid] |
| < 10 | O=C(Nc1scc(-c2ccc(Br)cc2)c1C(=O)O)c1nc2c(F)cccc2o1 [4-(4-bromophenyl)-2-(4-fluorobenzo[d]oxazole-2-carboxamido)thiophene-3-carboxylic acid] |
| < 10 | O=C(O)c1c(-c2ccc(Cl)cc2)csc1NC(=O)C(F)Cc1c(F)cccc1Cl (stereo not shown) [2-(3-(2-chloro-6-fluorophenyl)-2-fluoropropanamido)-4-(4-chlorophenyl)thiophene-3-carboxylic acid] |
| < 10 | N#C/C(=C\c1ccco1)C(=O)Nc1scc(-c2ccc(Cl)cc2)c1C(=O)O [(E)-4-(4-chlorophenyl)-2-(2-cyano-3-(furan-2-yl)acrylamido)thiophene-3-carboxylic acid] |
| < 10 | O=C(O)c1c(-c2ccc(Cl)cc2)csc1NC(=O)C1(c2ccc(Cl)cc2)CC1 [4-(4-chlorophenyl)-2-(1-(4-chlorophenyl)cyclopropanecarboxamido)thiophene-3-carboxylic acid] |
| < 10 | O=C(Nc1scc(OC(=O)c2cc3ccccc3o2)c1C(=O)O)OCc1ccccc1 [4-(benzofuran-2-carbonyloxy)-2-(benzyloxycarbonylamino)thiophene-3-carboxylic acid] |
| < 10 | Cc1ccc(-c2csc(NC(=O)c3nc4cc(Cl)ccc4o3)c2C(=O)O)c(F)c1F [2-(5-chlorobenzo[d]oxazole-2-carboxamido)-4-(2,3-difluoro-4-methylphenyl)thiophene-3-carboxylic acid] |
| < 10 | Cc1ccc(-c2csc(NC(=O)c3cc4c(F)cccc4o3)c2C(=O)O)c(F)c1F [4-(2,3-difluoro-4-methylphenyl)-2-(4-fluorobenzofuran-2-carboxamido)thiophene-3-carboxylic acid] |
| < 10 | N#Cc1cccc2cc(-c3csc(NC(=O)c4cc5ccccc5o4)c3C(=O)O)oc12 [2-(benzofuran-2-carboxamido)-4-(7-cyanobenzofuran-2-yl)thiophene-3-carboxylic acid] |
| < 10 | COc1c(Cl)ccc(-c2csc(NC(=O)c3cc4ccccc4o3)c2C(=O)O)c1Cl [2-(benzofuran-2-carboxamido)-4-(2,4-dichloro-3-methoxyphenyl)thiophene-3-carboxylic acid] |

| IC50 [µM] | Structure (SMILES) |
| --- | --- |
| < 10 | N#Cc1ccc(-c2csc(NC(=O)c3nc4ccccc4o3)c2C(=O)O)c(F)c1 [2-(benzo[d]oxazole-2-carboxamido)-4-(4-cyano-2-fluorophenyl)thiophene-3-carboxylic acid] |
| < 10 | O=C(Nc1scc(-c2ccc(Cl)c(F)c2F)c1C(=O)O)c1nc2ccccc2o1 [2-(benzo[d]oxazole-2-carboxamido)-4-(4-chloro-2,3-difluorophenyl)thiophene-3-carboxylic acid] |
| < 10 | O=C(Nc1scc(-c2cc(F)c(Cl)c(F)c2)c1C(=O)O)c1nc2ccccc2o1 [2-(benzo[d]oxazole-2-carboxamido)-4-(4-chloro-3,5-difluorophenyl)thiophene-3-carboxylic acid] |
| < 10 | O=C(O)c1c(-c2ccc(Br)cc2)csc1NC(=O)C(F)Cc1c(Cl)cccc1Cl (stereo not shown) [4-(4-bromophenyl)-2-(3-(2,6-dichlorophenyl)-2-fluoropropanamido)thiophene-3-carboxylic acid] |
| < 10 | O=C(Nc1scc(-c2ccc(Cl)cc2)c1C(=O)O)c1nc2ccc(F)cc2o1 [4-(4-chlorophenyl)-2-(6-fluorobenzo[d]oxazole-2-carboxamido)thiophene-3-carboxylic acid] |
| < 10 | O=C(Nc1scc(-c2ccc(Br)cc2)c1C(=O)O)c1cccc(F)n1 [4-(4-bromophenyl)-2-(6-fluoropicolinamido)thiophene-3-carboxylic acid] |
| < 10 | O=C(O)c1c(-c2ccc(Br)cc2)csc1NC(=O)C1Cc2cc(Cl)ccc2O1 (stereo not shown) [4-(4-bromophenyl)-2-(5-chloro-2,3-dihydrobenzofuran-2-carboxamido)thiophene-3-carboxylic acid] |
| < 10 | N#Cc1cc(-c2csc(NC(=O)c3nc4ccccc4o3)c2C(=O)O)ccc1F [2-(benzo[d]oxazole-2-carboxamido)-4-(3-cyano-4-fluorophenyl)thiophene-3-carboxylic acid] |
| < 10 | O=C(Nc1scc(-c2ccc(Cl)cc2)c1C(=O)O)c1cn2ccsc2n1 [4-(4-chlorophenyl)-2-(imidazo[2,1-b]thiazole-6-carboxamido)thiophene-3-carboxylic acid] |
| < 10 | O=C(CC1CCc2ccccc21)Nc1scc(-c2ccc(Cl)cc2)c1C(=O)O (stereo not shown) [4-(4-chlorophenyl)-2-(2-(2,3-dihydro-1H-inden-1-yl)acetamido)thiophene-3-carboxylic acid] |
| < 10 | O=C(Nc1scc(-c2ccc(Cl)c(F)c2)c1C(=O)O)c1nc2c(F)cccc2o1 [4-(4-chloro-3-fluorophenyl)-2-(4-fluorobenzo[d]oxazole-2-carboxamido)thiophene-3-carboxylic acid] |
| < 10 | O=C(O)c1c(-c2ccc(Cl)cc2)csc1NC(=O)C1Cc2cc(Cl)ccc2O1 (stereo not shown) [2-(5-chloro-2,3-dihydrobenzofuran-2-carboxamido)-4-(4-chlorophenyl)thiophene-3-carboxylic acid] |
| < 10 | O=C(Nc1scc(OC(=O)c2cc3ccccc3o2)c1C(=O)O)c1cc2ccccc2o1 [4-(benzofuran-2-carbonyloxy)-2-(benzofuran-2-carboxamido)thiophene-3-carboxylic acid] |
| < 10 | O=C(C#Cc1ccccc1)Nc1scc(-c2ccc(Cl)cc2)c1C(=O)O [4-(4-chlorophenyl)-2-(3-phenylpropiolamido)thiophene-3-carboxylic acid] |
| < 10 | Cc1ccc(-c2csc(NC(=O)c3ccc(-c4ccccc4)s3)c2C(=O)O)cc1 [2-(5-phenylthiophene-2-carboxamido)-4-p-tolylthiophene-3-carboxylic acid] |
| < 10 | O=C(O)c1c(-c2ccc(Br)cc2)csc1NC(=O)C1Cc2ccccc2O1 (stereo not shown) [4-(4-bromophenyl)-2-(2,3-dihydrobenzofuran-2-carboxamido)thiophene-3-carboxylic acid] |
| < 10 | O=C(Nc1scc(-c2ccc(Cl)cc2)c1C(=O)O)c1nc2c([N+](=O)[O-])cccc2s1 [4-(4-chlorophenyl)-2-(4-nitrobenzo[d]thiazole-2-carboxamido)thiophene-3-carboxylic acid] |
| < 10 | O=C(Nc1scc(-c2ccc(Br)cc2)c1C(=O)O)c1ccco1 [4-(4-bromophenyl)-2-(furan-2-carboxamido)thiophene-3-carboxylic acid] |
| < 10 | O=C(Nc1scc(-c2cc(F)c(Cl)c(F)c2)c1C(=O)O)c1nc2ccccc2s1 [2-(benzo[d]thiazole-2-carboxamido)-4-(4-chloro-3,5-difluorophenyl)thiophene-3-carboxylic acid] |
| < 10 | O=C(Nc1scc(-c2ccc(Br)cc2)c1C(=O)O)c1nc2ccccc2s1 [2-(benzo[d]thiazole-2-carboxamido)-4-(4-bromophenyl)thiophene-3-carboxylic acid] |
